Experimental data reported in ChEMBL document CHEMBL5505986, “Design, synthesis and biological evaluation of thiazolyl-halogenated pyrroles or pyrazoles as novel antibacterial and antibiofilm agents” (Eur J Med Chem, 2024).
Values after ≈ are worked out from the molar mass of the structure shown. Active and inactive are the calls of the source. The calls are words filed in the database; no cut-off is given here.

Tests used:
Acinetobacter baumannii = test: Antibacterial activity against Acinetobacter baumannii ATCC 19606 assessed as reduction in bacterial growth incubated for 24 hrs by broth microdilution method; type: functional
Staphylococcus aureus [1] = test: Antibacterial activity against vancomycin-intermediate resistant Staphylococcus aureus ATCC 700699/Mu50 assessed as reduction in bacterial growth incubated for 24 hrs by broth microdilution method; type: functional
Streptococcus pyogenes = test: Antibacterial activity against Streptococcus pyogenes ATCC 12204 assessed as reduction in bacterial growth incubated for 24 hrs by broth microdilution method; type: functional
Pseudomonas aeruginosa [2] = test: Antibacterial activity against Pseudomonas aeruginosa ATCC 47085 assessed as reduction in bacterial growth incubated for 24 hrs by broth microdilution method; type: functional
Enterococcus faecium [3] = test: Antibacterial activity against clinical isolate Enterococcus faecium assessed as reduction in bacterial growth incubated for 24 hrs by broth microdilution method; type: functional
Klebsiella pneumoniae = test: Antibacterial activity against Klebsiella pneumoniae ATCC 13883 assessed as reduction in bacterial growth incubated for 24 hrs by broth microdilution method; type: functional
Staphylococcus aureus [4] = test: Antibiofilm activity against vancomycin-intermediate resistant Staphylococcus aureus ATCC 700699/Mu50 at sub-MIC doses measured after 24 hrs by crystal violet staining based analysis; type: functional
Pseudomonas aeruginosa [5] = test: Antibiofilm activity against Pseudomonas aeruginosa ATCC 47085 at sub-MIC doses measured after 24 hrs by crystal violet staining based analysis; type: functional
Enterococcus faecium [6] = test: Antibiofilm activity against Enterococcus faecium clinical isolate at sub-MIC doses measured after 24 hrs by crystal violet staining based analysis; type: functional
Staphylococcus aureus [7] = test: Antibiofilm activity against vancomycin-intermediate resistant Staphylococcus aureus ATCC 700699/Mu50 at 1/8 time MIC measured after 24 hrs by crystal violet staining based analysis; type: functional, organism-based
Enterococcus faecium [8] = test: Antibiofilm activity against Enterococcus faecium clinical isolate at 1/8 times MIC measured after 24 hrs by crystal violet staining based analysis; type: functional, organism-based
Pseudomonas aeruginosa [9] = test: Antibiofilm activity against Pseudomonas aeruginosa ATCC 47085 at 8 to 16 ug/ml measured after 24 hrs by crystal violet staining based analysis; type: functional, organism-based; conditions: dose 8-16 µg/ml

Row | Compound | MIC (Acinetobacter baumannii) [µg/mL] | MIC (Staphylococcus aureus [1]) [µg/mL] | MIC (Streptococcus pyogenes) [µg/mL] | MIC (Pseudomonas aeruginosa [2]) [µg/mL] | MIC (Enterococcus faecium [3]) [µg/mL] | MIC (Klebsiella pneumoniae) [µg/mL] | Activity (Staphylococcus aureus [4]) | Activity (Pseudomonas aeruginosa [5]) | Activity (Enterococcus faecium [6]) | Activity (Staphylococcus aureus [7]) | Activity (Enterococcus faecium [8]) | Activity (Pseudomonas aeruginosa [9])
1 | Oc1c(Cl)cc(Cl)cc1-c1csc(-c2[nH]c(Br)c(Br)c2Br)n1 | > 256 | > 256 | 0.25 (≈ 0.456 µM) | > 256 | 0.5 (≈ 0.913 µM) | > 256 | – | – | – | – | – | –
2 | COc1ccc(O)c(-c2csc(-c3cc(Cl)c(Cl)[nH]3)n2)c1 | – | > 256 | > 256 | – | > 256 | – | – | – | – | – | – | –
3 | Oc1c(Cl)cc(Cl)cc1-c1csc(-c2cc(Cl)c(Cl)[nH]2)n1 | – | > 256 | > 256 | – | > 256 | – | – | – | – | – | – | –
4 | Oc1c(Br)cc(Br)cc1-c1csc(-c2cc(Br)c(Br)[nH]2)n1 | – | > 256 | 2 (≈ 3.58 µM) | – | > 256 | – | – | – | – | – | – | –
5 | Oc1c(Br)cc(C(F)(F)F)cc1-c1csc(-c2cc(C(F)(F)F)n[nH]2)n1 | – | 8 (≈ 17.5 µM) | 16 (≈ 34.9 µM) | – | 8 (≈ 17.5 µM) | – | – | – | – | – | – | –
6 | O=[N+]([O-])c1cc(-c2nc(-c3cc(C(F)(F)F)cc(Br)c3O)cs2)[nH]n1 | – | 8 (≈ 18.4 µM) | 4 (≈ 9.19 µM) | – | > 256 | – | – | – | – | – | – | –
7 | POLYMYXIN B | 2 | – | – | 4 | – | 2 | inactive | inactive | inactive | – | – | –
8 | Oc1c(Br)cc(C(F)(F)F)cc1-c1csc(-c2cc(Cl)c(Cl)[nH]2)n1 | – | 1 (≈ 2.18 µM) | ≤ 0.125 | – | > 256 | – | – | – | – | – | – | –
9 | Oc1c(F)cc(F)cc1-c1csc(-c2[nH]c(Br)c(Br)c2Br)n1 | – | > 256 | > 256 | – | > 256 | – | – | – | – | – | – | –
10 | Oc1c(Br)cc(Br)cc1-c1csc(-c2cc(C(F)(F)F)n[nH]2)n1 | > 256 | 2 (≈ 4.26 µM) | 4 (≈ 8.53 µM) | > 256 | 4 (≈ 8.53 µM) | > 256 | >60% | >60% | >60% | Active | Active | Active
11 | Oc1c(Br)cc(C(F)(F)F)cc1-c1csc(-c2cc(Br)c(Br)[nH]2)n1 | – | 1 (≈ 1.83 µM) | 0.5 (≈ 0.914 µM) | – | 2 (≈ 3.66 µM) | – | – | – | – | – | – | –
12 | Oc1c(F)cc(F)cc1-c1csc(-c2cc(Cl)c(Cl)[nH]2)n1 | – | > 256 | > 256 | – | > 256 | – | – | – | – | – | – | –
